According to publication PMC3875168 (Journal of medicinal chemistry, 2013):
Each block holds one compound with its values, some of them ahead of it.

Key:
[1] = biological target: LAR (Homo sapiens, UniProt P10586); assay: Selectivity assay, pNPP substrate; type: biochemical; details: relative to STEP Ki
[2] = biological target: T1, CD45 (Homo sapiens, UniProt P08575); assay: Selectivity assay, pNPP substrate; type: biochemical; details: relative to STEP Ki
T1 sequence (P08575 26-1306): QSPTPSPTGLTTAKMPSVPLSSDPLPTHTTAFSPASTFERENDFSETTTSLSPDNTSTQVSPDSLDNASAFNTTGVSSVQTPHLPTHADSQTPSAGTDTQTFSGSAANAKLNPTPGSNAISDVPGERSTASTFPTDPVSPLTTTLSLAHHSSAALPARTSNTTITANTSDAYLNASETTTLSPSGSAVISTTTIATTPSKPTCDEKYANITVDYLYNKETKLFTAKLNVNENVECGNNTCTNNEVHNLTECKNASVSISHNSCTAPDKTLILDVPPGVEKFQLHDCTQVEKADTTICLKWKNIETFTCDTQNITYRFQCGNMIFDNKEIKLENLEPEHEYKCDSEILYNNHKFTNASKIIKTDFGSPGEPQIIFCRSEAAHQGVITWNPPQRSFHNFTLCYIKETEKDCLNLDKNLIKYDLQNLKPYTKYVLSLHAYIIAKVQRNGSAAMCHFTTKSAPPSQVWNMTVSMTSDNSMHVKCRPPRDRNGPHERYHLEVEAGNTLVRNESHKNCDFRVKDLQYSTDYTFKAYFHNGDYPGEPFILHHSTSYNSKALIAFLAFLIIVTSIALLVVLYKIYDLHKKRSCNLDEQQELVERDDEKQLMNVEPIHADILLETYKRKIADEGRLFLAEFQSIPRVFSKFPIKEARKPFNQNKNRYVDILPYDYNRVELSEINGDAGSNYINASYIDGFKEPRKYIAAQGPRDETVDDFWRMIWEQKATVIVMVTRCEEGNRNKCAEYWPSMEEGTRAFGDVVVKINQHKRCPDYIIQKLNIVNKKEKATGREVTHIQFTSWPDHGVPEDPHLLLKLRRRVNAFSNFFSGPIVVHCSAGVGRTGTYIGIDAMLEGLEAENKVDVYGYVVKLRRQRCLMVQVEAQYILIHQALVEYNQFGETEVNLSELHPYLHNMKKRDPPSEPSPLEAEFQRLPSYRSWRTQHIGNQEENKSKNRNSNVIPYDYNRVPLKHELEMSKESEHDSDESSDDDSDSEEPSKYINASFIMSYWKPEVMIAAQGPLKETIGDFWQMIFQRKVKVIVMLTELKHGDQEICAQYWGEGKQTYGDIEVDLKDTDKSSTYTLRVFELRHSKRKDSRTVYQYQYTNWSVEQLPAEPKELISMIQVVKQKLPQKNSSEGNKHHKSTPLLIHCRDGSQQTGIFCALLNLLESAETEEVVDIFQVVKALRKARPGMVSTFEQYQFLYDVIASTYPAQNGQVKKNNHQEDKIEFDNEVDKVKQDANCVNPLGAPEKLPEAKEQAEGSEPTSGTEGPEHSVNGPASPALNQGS

[3] = Solubility of the inhibitor; type: physicochemical; details: hydroxyl group at the benzylic position, compared with 12p
[4] = biological target: T2, STEP (Rattus norvegicus, UniProt P35234); assay: STEP inhibition in neuronal cultures, Western blotting of phospho-substrates; type: cell-based; details: rat cortical neurons, 0.1, 1 or 10 µM for 1 h
T2 sequence (P35234 53-369 limits assumed): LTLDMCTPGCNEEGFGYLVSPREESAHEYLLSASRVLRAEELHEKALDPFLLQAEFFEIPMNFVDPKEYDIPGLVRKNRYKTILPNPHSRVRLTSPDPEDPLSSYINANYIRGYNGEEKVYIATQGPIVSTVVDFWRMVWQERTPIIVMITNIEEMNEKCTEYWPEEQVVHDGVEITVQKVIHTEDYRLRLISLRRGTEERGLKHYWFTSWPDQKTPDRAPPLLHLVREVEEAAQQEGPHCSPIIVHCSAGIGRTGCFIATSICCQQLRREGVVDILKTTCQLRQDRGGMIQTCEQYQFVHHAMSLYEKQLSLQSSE

[5] = BBB PAMPA; type: in vitro ADME; details: PAMPA model system; data in SI
[6] = biological target: T3, MKP5 (Homo sapiens, UniProt Q9Y6W6); assay: Selectivity assay, DiFMUP substrate; type: biochemical; details: relative to STEP Ki
T3 sequence (Q9Y6W6 1-482): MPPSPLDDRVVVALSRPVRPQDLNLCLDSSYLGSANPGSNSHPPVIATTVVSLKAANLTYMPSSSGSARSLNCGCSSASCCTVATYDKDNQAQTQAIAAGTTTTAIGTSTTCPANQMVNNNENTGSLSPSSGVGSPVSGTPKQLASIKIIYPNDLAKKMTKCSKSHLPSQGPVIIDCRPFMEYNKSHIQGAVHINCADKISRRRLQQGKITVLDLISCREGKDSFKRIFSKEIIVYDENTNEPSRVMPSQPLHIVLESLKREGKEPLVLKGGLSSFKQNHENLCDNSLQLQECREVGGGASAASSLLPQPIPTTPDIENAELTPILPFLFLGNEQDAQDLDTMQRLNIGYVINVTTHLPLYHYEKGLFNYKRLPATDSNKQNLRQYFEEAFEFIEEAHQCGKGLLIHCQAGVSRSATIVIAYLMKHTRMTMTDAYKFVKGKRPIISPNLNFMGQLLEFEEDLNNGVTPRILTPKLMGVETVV

LAR, sequence (P10586 30-1907): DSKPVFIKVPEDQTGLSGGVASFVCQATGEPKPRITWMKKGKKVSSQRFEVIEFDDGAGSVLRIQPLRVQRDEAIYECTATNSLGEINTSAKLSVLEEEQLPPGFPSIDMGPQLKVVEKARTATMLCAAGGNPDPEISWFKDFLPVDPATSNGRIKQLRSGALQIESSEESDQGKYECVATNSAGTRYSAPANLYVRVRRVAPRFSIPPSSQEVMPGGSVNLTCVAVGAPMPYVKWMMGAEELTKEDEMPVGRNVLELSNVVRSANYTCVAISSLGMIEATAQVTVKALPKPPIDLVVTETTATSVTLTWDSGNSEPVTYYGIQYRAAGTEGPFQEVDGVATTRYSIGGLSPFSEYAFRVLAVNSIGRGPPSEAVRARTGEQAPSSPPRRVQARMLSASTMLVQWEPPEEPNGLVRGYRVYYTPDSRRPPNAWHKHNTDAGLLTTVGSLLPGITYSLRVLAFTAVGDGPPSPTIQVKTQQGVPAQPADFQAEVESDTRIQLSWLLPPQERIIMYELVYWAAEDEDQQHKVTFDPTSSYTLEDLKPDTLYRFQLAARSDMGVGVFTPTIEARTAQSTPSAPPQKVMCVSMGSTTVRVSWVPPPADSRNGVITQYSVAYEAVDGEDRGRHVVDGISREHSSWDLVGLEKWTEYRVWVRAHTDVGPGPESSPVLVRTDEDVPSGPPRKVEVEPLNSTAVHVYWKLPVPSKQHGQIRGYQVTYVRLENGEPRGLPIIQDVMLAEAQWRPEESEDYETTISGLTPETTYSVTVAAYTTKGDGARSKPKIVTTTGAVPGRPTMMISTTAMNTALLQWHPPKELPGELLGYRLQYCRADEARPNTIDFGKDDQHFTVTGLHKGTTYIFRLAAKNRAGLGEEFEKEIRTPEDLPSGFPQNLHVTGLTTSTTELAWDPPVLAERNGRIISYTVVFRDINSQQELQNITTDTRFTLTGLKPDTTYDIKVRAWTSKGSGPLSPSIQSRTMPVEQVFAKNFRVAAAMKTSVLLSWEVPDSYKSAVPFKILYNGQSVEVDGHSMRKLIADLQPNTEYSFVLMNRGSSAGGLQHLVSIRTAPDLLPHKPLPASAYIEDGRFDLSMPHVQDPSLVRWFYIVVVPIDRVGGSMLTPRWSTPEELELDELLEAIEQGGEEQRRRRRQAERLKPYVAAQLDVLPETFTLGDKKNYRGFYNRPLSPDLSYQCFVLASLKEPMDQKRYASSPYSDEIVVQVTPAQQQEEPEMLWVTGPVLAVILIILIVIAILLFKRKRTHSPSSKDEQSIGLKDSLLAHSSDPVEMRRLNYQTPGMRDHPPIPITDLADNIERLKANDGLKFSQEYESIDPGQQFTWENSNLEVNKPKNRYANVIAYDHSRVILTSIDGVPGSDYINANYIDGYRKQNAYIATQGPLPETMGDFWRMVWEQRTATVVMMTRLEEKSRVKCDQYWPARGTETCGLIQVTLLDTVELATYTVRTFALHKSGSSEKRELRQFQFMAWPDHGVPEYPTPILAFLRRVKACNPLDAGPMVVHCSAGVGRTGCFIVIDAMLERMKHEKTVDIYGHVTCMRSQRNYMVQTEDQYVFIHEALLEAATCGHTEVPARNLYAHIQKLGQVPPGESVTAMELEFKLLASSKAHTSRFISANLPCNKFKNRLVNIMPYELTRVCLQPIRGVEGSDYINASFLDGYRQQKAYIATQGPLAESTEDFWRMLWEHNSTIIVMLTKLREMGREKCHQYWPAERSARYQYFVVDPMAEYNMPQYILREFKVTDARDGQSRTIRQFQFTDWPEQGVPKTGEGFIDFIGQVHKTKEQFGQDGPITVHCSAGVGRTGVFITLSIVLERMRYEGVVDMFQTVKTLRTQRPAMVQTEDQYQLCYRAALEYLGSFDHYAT

- selectivity LAR [1]: >45
- selectivity CD45 [2]: >25
Compound: O=P(O)(O)C(F)(F)c1cccc(-c2cccc(C3CCCCC3)c2O)c1 [11m, ((3'-Cyclohexyl-2'-hydroxy-[1,1'-biphenyl]-3-yl)difluoromethyl)phosphonic Acid]

- solubility of the inhibitor [3]: increased the solubility
Compound: O=P(O)(O)C(F)(F)c1ccc(-c2cccc(C(O)c3ccc(Cl)c(Cl)c3)c2)cc1 (stereo not shown) [12q, ((3'-((3,4-Dichlorophenyl)(hydroxy)methyl)-[1,1'-biphenyl]-4-yl)difluoromethyl)phosphonic Acid]

Compound: O=P(O)(O)[C@H](O)c1ccc(-c2cccc([C@@H](O)c3ccc(Cl)c(Cl)c3)c2)cc1 [12s, ((S)-(3'-((R)-(3,4-dichlorophenyl)(hydroxy)methyl)-[1,1'-biphenyl]-4-yl)(hydroxy)methyl)phosphonic Acid]
- phosphorylation levels of STEP substrates GluN2B, Pyk2 and ERK1/2 [4]: Clear increases in the phosphorylation levels
- ability to passively permeate the blood-brain barrier [5]: did not possess the ability to passively cross the BBB

Compound: O=P(O)(O)[C@H](O)c1ccc(-c2cccc([C@H](O)c3ccc(Cl)c(Cl)c3)c2)cc1 [12t, ((S)-(3'-((S)-(3,4-dichlorophenyl)(hydroxy)methyl)-[1,1'-biphenyl]-4-yl)(hydroxy)methyl)phosphonic Acid]
- phosphorylation levels of STEP substrates GluN2B, Pyk2 and ERK1/2 [4]: more modest effects
- selectivity MKP5 [6]: >65
